Experimental data taken from patent publication US8299021B2, “Macrocyclic inhibitors of hepatitis C virus replication” (InterMune, Inc., priority 2005, dated 2012).

target: T1, NS3-NS4 protease (full-length NS3/NS4A-2) (Hepatitis C virus genotype 1a, UniProt P27958); assay: NS3-NS4 protease assay / NS3 inhibition assay (RETS1 substrate, fluorescence kinetic read); format: biochemical; details: not given
T1 construct: Recombinant E. coli or Baculovirus full-length NS3 was diluted to 3.33 μM with assay buffer; made in house; host or cells: E. coli or baculovirus (insect cells)
Description: NS3 complex formation with NS4A-2.
The appropriate amount of NS4A-2 to 8.3 mM in assay buffer was added to equal the volume of NS3 in step 2.1.1 (conversion factor—3.8 mg/272 μL assay buffer). The material was transferred to an eppendorf tube and place in water bath in 4° C. refrigerator.
After equilibration to 4° C., equal volumes of NS3 and NS4A-2 solutions were combined in an eppendorf tube, mix gently with a manual pipettor, and incubate mixture for 15 minutes in the 4° C. water bath.
After 15 minutes at 4° C., the NS3/NS4A-2 eppendorf tube was removed and place it in a room temperature water bath for 10 minutes. NS3/NS4A-2 was alliquoted at appropriate volumes and store at −80° C. (E. coli NS3 run at 2 nM in assay, aliquot at 25 μL. BV NS3 run at 3 nM in assay, aliquot at 30 μL).
Sample compounds were dissolved to 10 mM in DMSO then diluted to 2.5 mM (1:4) in DMSO.
The E. coli. […] Using the manual multichannel pipettor, careful not to introduce bubbles into the plate, add 50 μL assay buffer to wells A01-H01 of a black Costar 96-well polypropylene storage plate.
Using the manual multichannel pipettor, careful not to introduce bubbles into the plate, add 50 μL of diluted NS3/NS4A-2 from step 2.2.6 to wells A02-H12 of plate in step 2.2.7. Using the manual multichannel pipettor, careful not to introduce bubbles into the plate, transfer 25 μL of the wells in drug dilution plate in step 2.2.5 to corresponding wells in assay plate in step 2.2.8. Change tips on multichannel pipettor for each row of compounds transferred. Using the manual multichannel pipettor, careful not to introduce bubbles into the plate, mix the wells from the assay plate in step 2.2.9 by aspirating and dispensing 35 μL of the 75 μL in each well five times. Change tips on multichannel pipettor for each row of wells mixed. Cover plate with a polystyrene plate lid and pre-incubate the plate from step 2.2.10 containing NS3 protease and sample compounds 10 minutes at room temperature. While plate from step 2.2.11 is pre-incubating, dilute RETS1 substrate in a 15 mL polypropylene centrifuge tube.
After the plate in step is done pre-incubating, and using the manual multichannel, add 25 μL of substrate to all wells on the plate. Quickly mix the plate as in step 2.2.10, mixing 65 μL of the 100 μL in the wells.
Read the plate in kinetic mode on the Molecular Devices SpectraMax
IC50s are determined using a four parameter curve fit equation, and converted to Ki's using the following Km's:
where Ki=IC50/(1+[S]/Km))

T1 sequence (P27958 1027-1657): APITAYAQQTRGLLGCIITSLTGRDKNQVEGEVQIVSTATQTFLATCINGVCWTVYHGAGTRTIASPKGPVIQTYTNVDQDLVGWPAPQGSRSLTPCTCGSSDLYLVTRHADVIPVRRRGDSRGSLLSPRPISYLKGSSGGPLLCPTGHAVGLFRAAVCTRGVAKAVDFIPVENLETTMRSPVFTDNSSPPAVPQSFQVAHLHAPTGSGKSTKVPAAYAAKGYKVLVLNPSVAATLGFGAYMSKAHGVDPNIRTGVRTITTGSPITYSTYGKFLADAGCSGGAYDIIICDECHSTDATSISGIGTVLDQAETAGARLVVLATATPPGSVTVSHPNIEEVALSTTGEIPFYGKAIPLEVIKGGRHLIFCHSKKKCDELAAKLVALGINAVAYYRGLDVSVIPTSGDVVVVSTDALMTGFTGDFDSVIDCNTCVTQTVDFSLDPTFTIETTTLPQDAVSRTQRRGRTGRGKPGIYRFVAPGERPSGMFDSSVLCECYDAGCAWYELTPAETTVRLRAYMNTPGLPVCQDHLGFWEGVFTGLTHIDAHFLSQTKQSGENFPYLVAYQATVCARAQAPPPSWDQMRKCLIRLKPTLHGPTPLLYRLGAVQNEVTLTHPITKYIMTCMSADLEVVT

In the case of `O=C(N[C@H]1CCCCC/C=C\[C@@H]2C[C@@]2(C(=O)NS(=O)(=O)C2CC2)NC(=O)[C@@H]2C[C@@H](OC(=O)N3Cc4cccc(F)c4C3)CN2C1=O)C(O)C(F)(F)F` (single isomer, unassigned) [Compound 247], the IC50 is reported as under 100 nM.

same assay, conditions: Table 22; read-out: NS3-NS4 IC50

`COc1cccc(NC(=O)[C@@]23C[C@H]2/C=C\CCCCC[C@H](NC(=O)OC(C)(C)C)C(=O)N2CCC[C@H]2C(=O)N3)c1` [Compound 2312] and `CC(C)(C)OC(=O)N[C@H]1CCCCC/C=C\[C@@H]2C[C@@]2(C(=O)Nc2ccc(F)cc2)NC(=O)[C@@H]2CCCN2C1=O` [Compound 2304] cannot be ordered by IC50: under 1000 nM for the first, under 1000 nM for the second.

`C[C@@H](NC(=O)[C@@]12C[C@H]1/C=C\CCCCC[C@H](NC(=O)OC(C)(C)C)C(=O)N1CCC[C@H]1C(=O)N2)c1ccccc1` [Compound 2311] and `CC(C)(C)OC(=O)N[C@H]1CCCCC/C=C\[C@@H]2C[C@@]2(C(=O)NCc2ccccc2)NC(=O)[C@@H]2CCCN2C1=O` [Compound 2307] cannot be ordered by IC50: under 1000 nM for the first, under 1000 nM for the second.

`CC(C)(C)OC(=O)N[C@H]1CCCCC/C=C\[C@@H]2C[C@@]2(C(=O)Nc2ccccc2Cl)NC(=O)[C@@H]2CCCN2C1=O` [Compound 2309] and `CC(C)(C)OC(=O)N[C@H]1CCCCC/C=C\[C@@H]2C[C@@]2(C(=O)NCc2ccc(Cl)cc2)NC(=O)[C@@H]2CCCN2C1=O` [Compound 2308] cannot be ordered by IC50: under 1000 nM for the first, under 1000 nM for the second.

`CC(C)(C)OC(=O)N[C@H]1CCCCC/C=C\[C@@H]2C[C@@]2(C(=O)NC2CCC2)NC(=O)[C@@H]2CCCN2C1=O` [Compound 2303] and `CC(C)(C)OC(=O)N[C@H]1CCCCC/C=C\[C@@H]2C[C@@]2(C(=O)NC#N)NC(=O)[C@@H]2CCCN2C1=O` [Compound 2306] cannot be ordered by IC50: under 1000 nM for the first, under 1000 nM for the second.

For `CC(C)(C)OC(=O)N[C@H]1CCCCC/C=C\[C@@H]2C[C@@]2(C(=O)NCc2cccc(C(=O)O)c2)NC(=O)[C@@H]2CCCN2C1=O` [Compound 2310], the IC50 was under 1000 nM.

same assay, conditions: Table 25; read-out: NS3-NS4 IC50

`Cc1ccc([S+]([O-])NC(=O)C23CC2C=CCCCCCC(NC(=O)OC(C)(C)C)C(=O)N2CC(OC(=O)N4Cc5ccccc5C4)CC2C(=O)N3)cc1` (stereo not drawn) [Compound 2603] showed an IC50 of under 10000 nM.

same assay, conditions: read-out: NS3-NS4 IC50

`CCc1ccc(NS(=O)(=O)NC(=O)[C@@]23C[C@H]2/C=C\CCCCC[C@H](NC(=O)OC(C)(C)C)C(=O)N2CCC[C@H]2C(=O)N3)cc1` [Compound 2242] and `CN(CC#N)S(=O)(=O)NC(=O)[C@@]12C[C@H]1/C=C\CCCCC[C@H](NC(=O)OC(C)(C)C)C(=O)N1CCC[C@H]1C(=O)N2` [Compound 2249] cannot be ordered by IC50: under 1000 nM for the first, under 1000 nM for the second.

`CO[C@@H]1C[C@H]2C(=O)N[C@]3(C(=O)NS(=O)(=O)C4CC4)C[C@H]3/C=C\CCCCC[C@H](NC(=O)OC(C)(C)C)C(=O)N2C1` [Compound 2146, 1S,4R,6S,14S,18R)-tert-Butyl 4-cyclopropylsulfonylaminocarbonyl-2,15-dioxo-3,16-diaza-18-methoxy-tricyclo[14.3.0.0^4,6]nonadec-7-ene-14-yl carbamate] and `CC(C)OC(=O)N[C@H]1CCCCC/C=C\[C@@H]2C[C@@]2(C(=O)NS(=O)(=O)Nc2ccc(Cl)cc2)NC(=O)[C@@H]2CCCN2C1=O` [Compound 418] cannot be ordered by IC50: over 10000 nM for the first, over 10000 nM for the second.

`CC(C)(C)OC(=O)NC1CCCCCC=CC2CC2(C(=O)NS(=O)(=O)c2ccccc2Cl)NC(=O)C2CCCN2C1=O` (stereo not drawn) [Compound 2109] and `CC(C)S(=O)(=O)NC(=O)[C@@]12C[C@H]1/C=C\CCCCC[C@H](NC(=O)OC(C)(C)C)C(=O)N1CCC[C@H]1C(=O)N2` [Compound 2104] cannot be ordered by IC50: under 10000 nM for the first, under 10000 nM for the second.

First: CC1CCCCN1S(=O)(=O)NC(=O)[C@@]12C[C@H]1/C=C\CCCCC[C@H](NC(=O)OC(C)(C)C)C(=O)N1CCC[C@H]1C(=O)N2 (stereo partly drawn) [Compound 2225]
Second: Cc1ccc(CC(=O)N[C@H]2CCCCC/C=C\[C@@H]3C[C@@]3(C(=O)NS(=O)(=O)C3CC3)NC(=O)C3CCCN3C2=O)cc1 (stereo partly drawn) [Compound 2140]
The IC50 of the first is lower: under 10000 nM for the first, over 10000 nM for the second. The first is the more potent here.

`COc1ccc(NS(=O)(=O)NC(=O)[C@@]23C[C@H]2/C=C\CCCCC[C@H](NC(=O)OC(C)(C)C)C(=O)N2CCC[C@H]2C(=O)N3)cc1` [Compound 2244] and `CC(C)(C)OC(=O)N[C@H]1CCCCC/C=C\[C@@H]2C[C@@]2(C(=O)NS(=O)(=O)NC2CC2c2ccccc2)NC(=O)[C@@H]2CCCN2C1=O` (stereo partly drawn) [Compound 2224] cannot be ordered by IC50: under 100 nM for the first, under 10000 nM for the second.

Going from `CC(C)(C)OC(=O)N[C@H]1CCCCC/C=C\[C@@H]2C[C@@]2(C(=O)NS(=O)(=O)c2cccc3ccccc23)NC(=O)[C@@H]2CCCN2C1=O` [Compound 2148] to `CC(C)(C)OC(=O)N[C@H]1CCCCC/C=C\[C@@H]2C[C@@]2(C(=O)NS(=O)(=O)Nc2ccc(Cl)cc2)NC(=O)[C@@H]2CCCN2C1=O` [Compound 2247], the IC50 rises from under 10000 nM to over 10000 nM.

`CCCCS(=O)(=O)NC(=O)[C@@]12C[C@H]1/C=C\CCCCC[C@H](NC(=O)OC(C)(C)C)C(=O)N1CCC[C@H]1C(=O)N2` [Compound 2106] and `CC(C)(C)OC(=O)N[C@H]1CCCCC/C=C\[C@@H]2C[C@@]2(C(=O)NS(=O)(=O)NCC2CC2)NC(=O)[C@@H]2CCCN2C1=O` [Compound 2245] cannot be ordered by IC50: under 100 nM for the first, under 100 nM for the second.

`CCOC(=O)[C@@]12C[C@H]1/C=C\CCCCC[C@H](NC(=O)OC(C)(C)C)C(=O)N1Cc3ccc(Oc4cccc(Cl)c4)cc3CC1C(=O)N2` (stereo partly drawn) [Compound 2006] and `CC(C)(C)OC(=O)NC1CCCCCC=CC2CC2(C(=O)NS(=O)(=O)C(F)(F)F)NC(=O)C2CCCN2C1=O` (stereo not drawn) [Compound 2107] cannot be ordered by IC50: under 1000 nM for the first, under 1000 nM for the second.

`CCCNS(=O)(=O)NC(=O)[C@@]12C[C@H]1/C=C\CCCCC[C@H](NC(=O)OC(C)(C)C)C(=O)N1CCC[C@H]1C(=O)N2` [Compound 2217] and `CN(CCc1ccccc1)S(=O)(=O)NC(=O)[C@@]12C[C@H]1/C=C\CCCCC[C@H](NC(=O)OC(C)(C)C)C(=O)N1CCC[C@H]1C(=O)N2` [Compound 2248] cannot be ordered by IC50: under 1000 nM for the first, under 10000 nM for the second.

`CC(C)(C)OC(=O)N[C@H]1CCCCC/C=C\[C@@H]2C[C@@]2(C(=O)NS(=O)(=O)c2ccccc2)NC(=O)[C@@H]2CCCN2C1=O` [Compound 2101] and `CCC1CCCCN1S(=O)(=O)NC(=O)[C@@]12C[C@H]1/C=C\CCCCC[C@H](NC(=O)OC(C)(C)C)C(=O)N1CCC[C@H]1C(=O)N2` (stereo partly drawn) [Compound 2220] cannot be ordered by IC50: under 10000 nM for the first, under 1000 nM for the second.

`CC(C)(C)OC(=O)NC1CCCCCC=CC2CC2(C(=O)NS(=O)(=O)c2cc(Cl)cc(Cl)c2)NC(=O)C2CCCN2C1=O` (stereo not drawn) [Compound 2108] and “Cyclopentyl (1aR,9S,19aR)-15-(3-chlorophenoxy)-10,18-dioxo-19a-(phenylsulfonylcarbamoyl)-1a,2,3,4,5,6,7,8,9,10,12,17,17a,18,19,19a-hexadecahydro-1H-2,5-diaza-bicyclo[13.1.0]hexadec-1(15)-eno[5,4-b]isoquinolin-9-ylcarbamate [Compound 2010]” cannot be ordered by IC50: under 10000 nM for the first, under 10000 nM for the second.

`CCNS(=O)(=O)NC(=O)[C@@]12C[C@H]1/C=C\CCCCC[C@H](NC(=O)OC(C)(C)C)C(=O)N1CCC[C@H]1C(=O)N2` [Compound 2216] and `CC(C)(C)OC(=O)N[C@H]1CCCCC/C=C\[C@@H]2C[C@@]2(C(=O)NS(=O)(=O)N2CCCCC2)NC(=O)[C@@H]2CCCN2C1=O` [Compound 2219] cannot be ordered by IC50: under 10000 nM for the first, under 10000 nM for the second.

`CC(C)(C)OC(=O)N[C@H]1CCCCC/C=C\[C@@H]2C[C@@]2(C(=O)NS(=O)(=O)c2ccc([N+](=O)[O-])cc2)NC(=O)[C@@H]2CCCN2C1=O` [Compound 2102] and `CC(C)CNS(=O)(=O)NC(=O)[C@@]12C[C@H]1/C=C\CCCCC[C@H](NC(=O)OC(C)(C)C)C(=O)N1CCC[C@H]1C(=O)N2` [Compound 2218] cannot be ordered by IC50: under 10000 nM for the first, under 100 nM for the second.

`CC(C)(C)OC(=O)N[C@H]1CCCCC/C=C\[C@@H]2C[C@@]2(C(=O)NS(C)(=O)=O)NC(=O)[C@@H]2CCCN2C1=O` [Compound 2103] and `CC(C)(C)OC(=O)N[C@H]1CCCCC/C=C\[C@@H]2C[C@@]2(C(=O)NS(=O)(=O)Nc2ccc(Cl)c(Cl)c2)NC(=O)[C@@H]2CCCN2C1=O` [Compound 2234] cannot be ordered by IC50: under 1000 nM for the first, under 1000 nM for the second.

`CC(C)N(C(C)C)S(=O)(=O)NC(=O)[C@@]12C[C@H]1/C=C\CCCCC[C@H](NC(=O)OC(C)(C)C)C(=O)N1CCC[C@H]1C(=O)N2` [Compound 2209] and `CC(C)(C)OC(=O)N[C@H]1CCCCC/C=C\[C@@H]2C[C@@]2(C(=O)NS(=O)(=O)c2ccc(Cl)cc2)NC(=O)[C@@H]2CCCN2C1=O` [Compound 2129] cannot be ordered by IC50: under 1000 nM for the first, under 10000 nM for the second.

With `COC(=O)C1CCCCN1S(=O)(=O)NC(=O)[C@@]12C[C@H]1/C=C\CCCCC[C@H](NC(=O)OC(C)(C)C)C(=O)N1CCC[C@H]1C(=O)N2` (stereo partly drawn) [Compound 2221] the IC50 was under 1000 nM.
